# Measurements reported in US9623031B2, “Compositions, methods and kits for treating cancer” (priority 2011, dated 2017).
# Entries after “also recorded” stand apart in the source; their conditions may differ.
# Legend:
# [1] = system: normal HSCs (MSCV-GFP^+HSC); test: Effect on normal HSCs (MSCV-GFP+ HSC) treated ex vivo; settings: antagonists/inhibitor 10 nM; Δ^12-PGJ3 25 nM; 36 h
# [2] = system: BCR-ABL^+LSC (Kit^+Sca1^+Lin^−GFP^+); test: Apoptosis of BCR-ABL+ LSCs treated ex vivo (annexin V, flow cytometry); type: cell-based, mouse
# Procedure: Apoptosis. Apoptosis of LSCs was performed using annexin V as described below in Supplementary Information and Methods.
# Apoptosis. The LSCs were diluted in DMEM, resuspended using a 16-gauge needle, and collected by centrifugation. 1×10^5 cells were resuspended in 200 μl of binding buffer (0.1 M HEPES with 1.4 M NaCl, 25 mM CaCl2, pH 7.4). Annexin V FITC (BD Biosciences) was incubated with cells for 15 min on ice followed by flow cytometric analysis.
# The ability of CyPGs derived from arachidonic acid (2 series PGs) to induce apoptosis was tested in cultures of LSCs from FV infected mice and in the murine CML model. […] 15d-PGJ2 is known as a PPAPγ agonist. […] In FIG. 7C Δ^12-PGJ3, 15d-PGJ2 or 9,10-dihydro-15d-PGJ2 are tested for their ability to induce apoptosis in a murine CML model. […] The cells were stained with annexin V-FITC and analyzed by flow cytometry. Representative of N=4. […] Inset: Effect of rosiglitazone on the apoptosis of LSC. Rosiglitazone (0.1-2.0 μM) was incubated with LSC in the culture media for 36 h as described earlier and the cells were subjected to annexin-V staining followed by flow cytometry. […] LSC were treated ex vivo with indicated concentrations of each compound for 36 h.
# (§1) Following 36 h of incubation, apoptotic cells were quantified by annexin V staining. […] In a related study to address if Δ^12-PGJ3 treatment would cause any degranulation of granulocytes, a rat basophilic cell line ([…]) was treated with 100 nM Δ^12-PGJ3 and the degranulation was followed by quantitating the release of histamine and a second marker of degranulation, hexoseaminidase.
# In this experiment, 500,000 BCR-ABL+ LSCs were plated in a 24-well plate followed and were treated with 25 nM PGD2Me or 100 nM ZK118182 (both are agonists of DP) for 24 h. GFP^+ cells were analyzed by flow cytometry. These agonists were purchased from Cayman Chemicals, MI.
# p53 [3] = test: p53 expression in FV-LSCs treated ex vivo (RT-PCR, nuclear extracts); type: cell-based, mouse
# p53 [4] = test: p53 expression in BCR-ABL+ LSCs treated ex vivo; type: cell-based, mouse
# [5] = system: primary human AML cells; LSCs (CD34+CD38−CD123+); test: Apoptosis of primary human AML cells and AML LSCs (annexin V); type: cell-based; settings: CAY10471 10 nM pretreatment, then Δ^12-PGJ3 100 nM
# Procedure: In this experiment, 110,000/well primary AML cells were cultured in above specified media for 6 and 12 hrs. Cells were collected and washed once with ice cold PBS. The cells were resuspended in 200 ul 1× Apoptosis buffer with annexin-V PE to all tubes. The cells were washed in PBS and resuspended in 600 ul PBS and transfer into flow tubes and analyzed for apoptosis (Annexin V+ cells) on FC-500. […] In this experiment, 110,000/well AML cells were cultured in earlier mentioned media for 6 and 12 hrs. Cells were collected and washed once in PBS and resuspended in 200 ul PBS and blocked with FC receptor antibody 10 mins RT. The following antibodies were added: CD38, CD123, CD34, CD117 (BD bioscience) for 1 hr on ice. Cells were washed in PBS once and resuspended in 200 ul of apoptotic buffer, and annexin V was added and incubated for 15 mins. Apoptotic cells (Annexin V+ cells) were counted by flow cytometry. […] Cells were collected and washed once in PBS and resuspended in 200 ul PBS and blocked with FC receptor antibody 10 mins RT. The following antibodies were added: CD38, CD123, CD34 (BD bioscience) for 1 hr on ice. Cells were washed in PBS once and resuspended in 200 ul of apoptotic buffer, and annexin V was added and incubated for 15 mins. Apoptotic cells (Annexin V+ cells) were counted by flow cytometry.
# Referring to the results shown in FIG. 16, these experiments were performed with primary AML stem cells isolated from a patient. […] In an identical experiment, the cells were also treated with a synthetic DP agonist, ZK118182 (100 nM). Apoptosis of cells (by annexin V staining) was measured using flow cytometry.
# [6] = system: FV-LSCs (M34^+Kit^+Sca1^+); test: Apoptosis of FV-LSCs treated ex vivo (annexin V, flow cytometry); type: cell-based, mouse; settings: 25 nM, 36 h, annexin V
# Procedure: On day 14 after infection, spleens were isolated and a single cell suspension of spleen cells was generated. The cells were filtered through a 70 μm sterile filter and flow-through cells were resuspended in RBC lysis buffer followed by centrifugation. Leukemia stem cells were isolated by FACS. Spleen cells were labeled with anti-Kit, Sca1 (BioLegend, San Diego, Calif.) and M34 antibodies. […] As indicated M34^+Kit^+Sca1^+ cells were cultured in Methocult media (Stem Cell Technologies Vancouver BC) M3334 supplemented with 200 ng/ml Sonic Hedgehog (Shh), 15 ng/ml bone morphogenetic protein-4 (BMP4) (both from R&D Systems Minneapolis, Minn.), and 50 ng/ml stem cell factor (SCF; Peprotech).
# The cells were stained with annexin V-FITC and analyzed by flow cytometry. […] Means±s.e.m. *P<0.001 compared to vehicle (PBS). […] Inset: Effect of rosiglitazone on the apoptosis of LSC. Rosiglitazone (0.1-2.0 μM) was incubated with LSC in the culture media for 36 h as described earlier and the cells were subjected to annexin-V staining followed by flow cytometry. […] LSC were treated ex vivo with indicated concentrations of each compound for 36 h. Mean±s.e.m. shown *P<0.001.
# [7] = system: Friend virus (FV)-induced erythroleukemia; test: FV-induced erythroleukemia in FV-infected mice, intraperitoneal treatment; type: in vivo, mouse
# Source text: FV-induced erythroleukemia and production of FV leukemia stem cells (FV-LSCs): BALB/c mice were infected with FV as previously described (Subramanian A et al., J Virol. 2008; 82:382-393; Harandi O F et al., J Clin Invest. 2010; 120:4507-4519). On day 14 after infection, spleens were isolated and a single cell suspension of spleen cells was generated. The cells were filtered through a 70 μm sterile filter and flow-through cells were resuspended in RBC lysis buffer followed by centrifugation. Leukemia stem cells were isolated by FACS. Spleen cells were labeled with anti-Kit, Sca1 (BioLegend, San Diego, Calif.) and M34 antibodies. M34 is a monoclonal antibody that recognizes the envelope protein of SFFV (Chesebro B et al., Virology. 1981; 112:131-144) and was used as previously described (Subramanian A et al., J Virol. 2008; 82:382-393). As indicated M34^+Kit^+Sca1^+ cells were cultured in Methocult media (Stem Cell Technologies Vancouver BC) M3334 supplemented with 200 ng/ml Sonic Hedgehog (Shh), 15 ng/ml bone morphogenetic protein-4 (BMP4) (both from R&D Systems Minneapolis, Minn.), and 50 ng/ml stem cell factor (SCF; Peprotech). For CFU-FV assays, cells were plated in methylcellulose media containing fetal calf serum, but lacking added growth factors as previously described (Mager D L et al., Proc Natl Acad Sci USA. 1981; 78:1703-1707).
# Complete blood counts of mice treated with Δ^12-PGJ3 (0.05 mg/kg) were examined. There is no difference in treated mice and untransplanted control mice in terms of white blood cell counts, red blood cell counts or platelet counts. Changes in hematological parameters in FV-infected mice upon treatment with CyPGs were examined. FV-infected Balb/c mice were treated with Δ^12-PGJ3 (0.05 mg/kg) intraperitoneally for 7 d following which the mice were sacrificed and hematological parameters were analyzed on an Advia blood analyzer. FV-infected Δ^12-PGJ3 treated mice were compared to infected vehicle controls. N=5 per group, all data are means±s.e.m. *P<0.05. 3% w/v hydroxypropyl-3-cyclodextrin was used as a vehicle in in vivo experiments. Spleen sizes of FV-infected mice that were treated with either vehicle, 9,10-dihydro-15d-PGJ2 (0.05 mg/kg), or 15d-PGJ2 (0.05 mg/kg) were examined; N=3 pre group. Hematological parameters of Balb/c uninfected, infected, and 15d-PGJ2 treated mice were examined. N=5 per group. All data were means±s.e.m. *P<0.05.
# FV-LSC were targeted by 15d-PGJ2 in the spleen of FV-infected mice. FV-infected mice were treated with 15d-PGJ2 or 9,10-dihydro-15d-PGJ2 at 0.05 mg/kg for 7 d. The splenic LSC (M34^+Sca1^+Kit^+) cells were analyzed by flow cytometry on day 14 post infection. […] Uninfected and infected vehicle controls were used for comparison. N=3; *P<0.05. […] The colonies were counted 10-14 days after plating. N=3 mice per group, *p<0.05.
# [8] = system: FV-LSCs transplanted into BALB/c-Stk^−/− mice
# Procedure: Transplant of FV-LSCs into BALB/c-Stk^−/− mice: FV-LSCs were generated as described above. 2.5×10^5 FV-LSCs were transplanted into BALB/c-Stk^−/− mice by retro-orbital injection. Six weeks after transplant the mice were treated with CyPGs or vehicle control as indicated in the text.
# Treatment of Mice with PGs: Mice with FV-induced erythroleukemia or MIGR-BCR-ABL induced CML were treated on the indicated days with CyPGs. Mice were treated with a daily intraperitoneal injection of Δ^12-PGJ3 (0.01-0.1 mg/kg), 15d-PGJ2 (0.1 mg/kg), or 9,10-dihydro-15d-PGJ2 (0.1 mg/kg) for 7 days. All three compounds were formulated with hydroxypropyl-β-cyclodextrin (30% w/v; Sigma; vehicle control).
# Stk^−/− mice are resistant to Friend virus infection so the leukemia developed by the transplanted mice is result of the transplanted LSCs and not FV infection. […] LSCs sorted from the spleens of FV-infected mice were transplanted into Stk^−/− mice (on a Balb/c background). After 6 weeks such mice were treated daily for 1 week with vehicle (hydroxypropyl-β-cyclodextrin), 15d-PGJ2 (0.05 mg/kg), or 9,10-dihydro-15d-PGJ2 (0.05 mg/kg) by intraperitoneal injection. The mice were sacrificed 51 days post LSC transplantation for analysis. An analysis of spleens of mice comparing splenomegaly in vehicle, 15d-PGJ2, or 9,10-dihydro-15d-PGJ2 treated transplanted mice was performed. Spleen weight compared to control (untransplanted mice) after treatment and WBC counts in the peripheral blood of the mice after treatment were examined, and a flow cytometric analysis of the spleen of untransplanted and LSC transplanted mice after treatment was performed. All data were mean±s.e.m. *p<0.05 compared to control or 9,10-dihydro-15d-PGJ2 treated groups. N=5 per group.
# [9] = system: rat basophilic cell line (RBL-23); test: Degranulation of basophilic cells (histamine and hexoseaminidase release); settings: Δ^12-PGJ3 100 nM
# Procedure: as §1
# [10] = system: Human unfractionated bone marrow cells; test: Colony formation of normal human bone marrow cells in methylcellulose; settings: methylcellulose with multiple growth factors, 12 days
# Procedure: Human unfractionated bone marrow cells (5×10^5 per well) were plated in methylcellulose complete media containing IL-3, GM-CSF, G-CSF, SCF and Epo supplemented with the indicated concentrations of drugs. Total colonies were counted after 12 days.
structure (smiles),measurement,setting,value
"O=c1cc(-c2cccc3c2Sc2ccccc2S3)oc(N2CCOCC2)c1 [MTPO, 2-Morpholin-4-yl-6-thianthren-1-yl-pyran-4-one]",viability of MSCV-HSC control cells,[1],not affected
same,block of Δ^12-PGJ3-induced apoptosis by ATM inhibitor,"[2]; pretreatment, then 25 nM Δ^12-PGJ3",blocked the effect of Δ^12-PGJ3 on apoptosis
same,block of Δ^12-PGJ3-dependent p53 expression by ATM inhibitors,"p53 [3]; preincubation, then Δ^12-PGJ3",blocked the CyPG-dependent expression of p53
same,block of Δ^12-PGJ3-induced p53 expression by ATM inhibitor,p53 [4]; pretreatment,blocked
"CN(C1CCc2c(c3ccccc3n2CC(=O)O)C1)S(=O)(=O)c1ccc(F)cc1 (stereo not shown) [CAY10471, reference compound]",viability of MSCV-HSC control cells,[1],not affected
same,block of Δ^12-PGJ3-induced apoptosis of LSCs,[5],completely blocked the apoptosis
same,inhibition of Δ^12-PGJ3-induced apoptosis by DP antagonist,"[2]; antagonist 10 nM, 2 h pretreatment, then 25 nM Δ^12-PGJ3, 36 h",inhibited
"CCCCC/C=C\C=C1\C(=O)CC[C@@H]1C/C=C\CCCC(=O)O [9,10-dihydro-15d-PGJ2]",apoptosis of FV-LSCs,[6],fail to induce apoptosis; also recorded: no apoptosis
same,apoptosis of Sca1+GFP+Kit+ BCR-ABL+LSC from spleen,"[2]; 25-1000 nM, 36 h",had no effect; also recorded: ineffective even at high concentrations up to 1 μM
same,p53 expression at transcript level,"p53 [3]; 10 or 25 nM, 12 h",ineffective
same,p53 mRNA,p53 [4]; 25 nM ex vivo,ineffective
same,LSCs (Sca1+Kit+M34+) in the spleen,"[7]; 0.05 mg/kg i.p. 7 d, flow cytometry day 14 post infection",ineffective
same,"splenomegaly, comparator CyPGs",[7]; i.p. 7 days,did not have any effect on the amelioration of splenomegaly
same,"hematocrit, WBC counts and reticulocyte counts","[8]; FV-induced leukemia, FIG. 3C",had no effect on any parameter tested
same,LSCs (M34+Sca1+Kit+) in the spleen,[8]; flow cytometry after 1 week i.p. treatment,did not have any effect on their viability
same,splenomegaly,"[8]; Δ^12-PGJ3 0.025 and 0.05 mg/kg, comparators 0.05 mg/kg, i.p. 1 week",nor alleviated splenomegaly
C[C@H](CCC(=O)O)C[C@H](C)C[C@H](C)C(=O)/C=C(\O)[C@H](C)C[C@H](C)C/C=C/[C@@H](C)[C@@H](O)[C@@H](C)[C@@H](O)C[C@@H]1CC[C@@](C)([C@H]2CC[C@@](C)([C@@H](C)O)O2)O1 [ionomycin],degranulation (release of histamine and hexoseaminidase),[9],caused extensive production of histamine and hexoseaminidase
"CC(C)OC(=O)COCC=CCC1C(Cl)CC(O)C1C=CC(O)C1CCCCC1 (stereo not drawn) [ZK118182, [[4-[5R-chloro-2Z-[3R-cyclohexyl-3 S-hydroxy-1R-propenyl]-3 S-hydroxycyclopentyl]-2R-butenyl]oxy]-acetic acid, isopropyl ester]",total colonies of human bone marrow cells,[10],had no effect
same,apoptosis of BCR-ABL+ LSCs by synthetic DP agonists (GFP+ cells),"[2]; 25 nM PGD2Me or 100 nM ZK118182, 24 h",can induce apoptosis of LSCs
